Measurements from ChEMBL document CHEMBL1201862, “PubChem BioAssay data set” (2004).
Active and inactive are the calls of the source.

How the values were obtained:
[1] = target: Cyclin-dependent kinase 19 (Homo sapiens, UniProt Q9BWU1); experiment: Navigating the Kinome. Panel member name: CDC2L6; format: functional
[2] = target: High affinity nerve growth factor receptor (Homo sapiens, UniProt P04629); format: functional;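 note: NTRK1 tested as one member of a kinome-wide profiling panel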
[3] = target: T1, Neuropeptides B/W receptor type 1 (Homo sapiens, UniProt P48145); experiment: GPR7 antagonist potency, late-stage follow-up, cell-based, fluorescence, dose response, set 6 (AID 588583); format: functional
T1 sequence (P48145 whole entry): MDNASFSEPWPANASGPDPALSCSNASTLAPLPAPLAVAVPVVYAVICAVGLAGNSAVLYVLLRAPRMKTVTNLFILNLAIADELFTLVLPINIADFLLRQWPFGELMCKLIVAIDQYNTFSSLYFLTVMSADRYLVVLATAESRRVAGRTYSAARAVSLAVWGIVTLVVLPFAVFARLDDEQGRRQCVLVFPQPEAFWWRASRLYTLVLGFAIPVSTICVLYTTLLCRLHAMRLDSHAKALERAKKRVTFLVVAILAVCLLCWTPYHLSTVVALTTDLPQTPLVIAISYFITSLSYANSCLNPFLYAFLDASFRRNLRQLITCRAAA

[4] = target: T2, Melanin-concentrating hormone receptor 1 (Homo sapiens, UniProt Q99705); experiment: Late-stage fluorescence-based counterscreen for antagonists of the G-protein coupled receptor 7 (GPR7): cell-based dose response assay to identify antagonists of the melanin-concentrating hormone receptor 1 (MCHR1) Set 6.; format: functional
T2 sequence (Q99705 whole entry): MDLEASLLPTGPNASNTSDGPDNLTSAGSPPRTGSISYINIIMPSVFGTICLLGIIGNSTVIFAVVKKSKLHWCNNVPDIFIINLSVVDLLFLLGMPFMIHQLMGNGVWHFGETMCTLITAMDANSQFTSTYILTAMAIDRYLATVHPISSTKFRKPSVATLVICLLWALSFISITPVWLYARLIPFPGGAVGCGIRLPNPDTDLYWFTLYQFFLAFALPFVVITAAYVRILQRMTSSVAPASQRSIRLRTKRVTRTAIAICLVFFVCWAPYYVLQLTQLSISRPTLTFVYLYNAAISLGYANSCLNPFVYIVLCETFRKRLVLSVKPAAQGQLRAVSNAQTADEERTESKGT

[5] = target: T3, Apoptotic protease-activating factor 1 (Homo sapiens, UniProt O14727); experiment: SAR analysis of small molecule Activators of Apaf-1 in a Fluorescent assay - set 2.; format: functional; details: read-out: EC50_Mean
T3 sequence (O14727 whole entry): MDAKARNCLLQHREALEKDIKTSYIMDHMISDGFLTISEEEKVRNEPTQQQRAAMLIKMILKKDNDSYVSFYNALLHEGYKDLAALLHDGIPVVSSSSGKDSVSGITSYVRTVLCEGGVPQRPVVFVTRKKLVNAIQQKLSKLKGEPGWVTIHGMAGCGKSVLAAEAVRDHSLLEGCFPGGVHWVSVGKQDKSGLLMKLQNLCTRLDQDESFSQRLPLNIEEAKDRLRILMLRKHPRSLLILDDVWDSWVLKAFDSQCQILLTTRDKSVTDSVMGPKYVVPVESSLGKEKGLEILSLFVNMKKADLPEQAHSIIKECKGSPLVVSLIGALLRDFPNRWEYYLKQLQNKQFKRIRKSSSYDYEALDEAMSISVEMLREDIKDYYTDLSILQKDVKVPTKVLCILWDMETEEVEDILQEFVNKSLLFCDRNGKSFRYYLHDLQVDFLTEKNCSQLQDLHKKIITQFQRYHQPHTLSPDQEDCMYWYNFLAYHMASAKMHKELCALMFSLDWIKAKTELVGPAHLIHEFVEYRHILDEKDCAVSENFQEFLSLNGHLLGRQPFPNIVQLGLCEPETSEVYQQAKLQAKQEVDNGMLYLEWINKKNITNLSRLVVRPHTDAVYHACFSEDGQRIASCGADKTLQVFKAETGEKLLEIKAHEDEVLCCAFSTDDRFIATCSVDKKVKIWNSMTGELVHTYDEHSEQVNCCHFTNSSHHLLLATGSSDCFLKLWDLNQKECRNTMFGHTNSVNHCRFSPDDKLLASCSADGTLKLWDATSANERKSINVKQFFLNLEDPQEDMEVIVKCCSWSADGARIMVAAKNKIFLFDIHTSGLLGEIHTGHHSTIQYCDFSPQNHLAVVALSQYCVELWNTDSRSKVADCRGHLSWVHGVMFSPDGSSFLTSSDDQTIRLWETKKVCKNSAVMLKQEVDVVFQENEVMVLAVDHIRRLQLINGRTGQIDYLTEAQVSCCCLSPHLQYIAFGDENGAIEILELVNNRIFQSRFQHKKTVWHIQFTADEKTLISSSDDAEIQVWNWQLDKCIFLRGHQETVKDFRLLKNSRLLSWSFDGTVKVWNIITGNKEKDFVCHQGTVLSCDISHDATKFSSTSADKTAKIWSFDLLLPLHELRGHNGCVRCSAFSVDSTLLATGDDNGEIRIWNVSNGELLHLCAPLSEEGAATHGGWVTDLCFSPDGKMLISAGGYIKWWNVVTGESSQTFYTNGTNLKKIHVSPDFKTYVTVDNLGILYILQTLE

[6] = SAR analysis of small molecule activators of Apaf-1 using a LZ-Caspase-9/Caspase-3 Fluorescent Selectivity assay - Set 2.; format: functional; details: read-out: EC50_Mean
[7] = Vero cell cytotoxicity, dose response, cytotoxicity control for M. tuberculosis growth inhibitor project, Vero cells, purified and synthesized compounds, set 4 (AID 504854); format: functional; details: Mycobacterium tuberculosis
[8] = Vero cell cytotoxicity, dose response, cytotoxicity control for M. tuberculosis growth inhibitor project, Vero cells, purified and synthesized compounds, set 5 (AID 504909); format: functional; details: Mycobacterium tuberculosis
[9] = target: T2, Melanin-concentrating hormone receptor 1; experiment: Late-stage fluorescence-based counterscreen for antagonists of the G-protein coupled receptor 7 (GPR7): cell-based dose response assay to identify antagonists of the melanin-concentrating hormone receptor 1 (MCHR1) Set 5.; format: functional
[10] = target: T1, Neuropeptides B/W receptor type 1; experiment: GPR7 antagonist potency, late-stage follow-up, cell-based, fluorescence, dose response, set 5 (AID 588566); format: functional
[11] = target: Beta-lactamase (Salmonella choleraesuis (strain SC-B67), UniProt Q5J463)
Chain of Beta-lactamase (Salmonella choleraesuis (strain SC-B67), UniProt Q5J463) (Q5J463 whole entry): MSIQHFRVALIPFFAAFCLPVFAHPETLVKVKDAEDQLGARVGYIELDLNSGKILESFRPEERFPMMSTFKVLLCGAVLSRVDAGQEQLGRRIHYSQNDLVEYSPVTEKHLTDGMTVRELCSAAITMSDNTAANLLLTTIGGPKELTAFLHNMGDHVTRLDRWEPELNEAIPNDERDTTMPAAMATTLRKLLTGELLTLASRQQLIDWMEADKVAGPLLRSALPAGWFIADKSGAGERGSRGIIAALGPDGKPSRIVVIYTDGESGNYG

[12] = target: E3 ubiquitin-protein ligase XIAP (Homo sapiens, UniProt P98170); experiment: Counter Screen using XIAP-Bir3 for Chemical Antagonists of Bir1/2 domains of IAP-family anti-apoptotic proteins. [Related pubchem assays (depositor defined):AID1018, AID1449, AID1514, AID1638, AID1749, AID1750, AID488957, AID488963]
Chain of E3 ubiquitin-protein ligase XIAP (P98170 whole entry): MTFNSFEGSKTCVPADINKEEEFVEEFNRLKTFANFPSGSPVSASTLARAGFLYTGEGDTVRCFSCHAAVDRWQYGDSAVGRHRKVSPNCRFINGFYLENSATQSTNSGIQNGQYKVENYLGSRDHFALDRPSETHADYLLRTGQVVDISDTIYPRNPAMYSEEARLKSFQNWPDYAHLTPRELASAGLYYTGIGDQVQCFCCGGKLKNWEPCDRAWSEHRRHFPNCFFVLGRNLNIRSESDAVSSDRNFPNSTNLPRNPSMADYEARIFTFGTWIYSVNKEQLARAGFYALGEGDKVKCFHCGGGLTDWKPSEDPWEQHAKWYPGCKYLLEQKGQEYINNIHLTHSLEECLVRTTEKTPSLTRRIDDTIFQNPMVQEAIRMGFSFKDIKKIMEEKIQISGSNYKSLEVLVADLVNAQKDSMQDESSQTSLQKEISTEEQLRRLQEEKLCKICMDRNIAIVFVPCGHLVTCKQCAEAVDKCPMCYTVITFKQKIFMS

[13] = target: Beta-lactamase (Pseudomonas aeruginosa, UniProt Q79MP6);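 note: biochemical dose-response test of metallo-beta-lactamase enzyme inhibition, read out by epi-absorbance; purified recombinant IMP-1 metallo-beta-lactamase with nitrocefin as substrate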
Chain of Beta-lactamase (Pseudomonas aeruginosa, UniProt Q79MP6) (Q79MP6 whole entry): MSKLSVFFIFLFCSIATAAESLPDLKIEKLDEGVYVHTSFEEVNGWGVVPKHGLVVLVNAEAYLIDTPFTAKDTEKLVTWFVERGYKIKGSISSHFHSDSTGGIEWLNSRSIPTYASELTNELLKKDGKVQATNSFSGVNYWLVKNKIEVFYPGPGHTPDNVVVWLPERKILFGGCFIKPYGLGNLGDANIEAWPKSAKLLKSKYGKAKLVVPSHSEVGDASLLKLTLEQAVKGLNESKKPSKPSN

[14] = target: T3, Apoptotic protease-activating factor 1; format: functional
[15] = target: Beta Lactamase (Pseudomonas aeruginosa, UniProt Q932Y6);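 note: confirmatory high-throughput screen measuring VIM-2 metallo-beta-lactamase inhibition by epi-absorbance in dose response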
Chain of Beta Lactamase (Q932Y6 whole entry): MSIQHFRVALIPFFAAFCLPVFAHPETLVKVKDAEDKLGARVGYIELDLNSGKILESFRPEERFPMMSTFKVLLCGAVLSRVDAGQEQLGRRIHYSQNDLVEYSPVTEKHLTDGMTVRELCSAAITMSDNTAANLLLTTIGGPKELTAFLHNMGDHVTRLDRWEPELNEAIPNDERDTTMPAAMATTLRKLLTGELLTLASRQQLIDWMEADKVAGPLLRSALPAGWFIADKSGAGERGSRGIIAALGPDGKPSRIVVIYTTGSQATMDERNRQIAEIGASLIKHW

[16] = target: T4, Bcl-2-related protein A1 (Mus musculus, UniProt Q07440); format: functional;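 note: confirmatory dose–response counterscreen on Bfl-1, used to check hits from a UBC13 polyubiquitin inhibitor campaign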
T4 sequence (Q07440 whole entry): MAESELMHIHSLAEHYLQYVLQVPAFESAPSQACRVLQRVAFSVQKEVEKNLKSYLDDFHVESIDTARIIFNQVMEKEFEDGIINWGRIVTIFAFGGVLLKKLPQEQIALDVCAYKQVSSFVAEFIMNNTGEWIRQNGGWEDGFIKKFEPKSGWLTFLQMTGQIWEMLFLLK

[17] = target: T3, Apoptotic protease-activating factor 1; experiment: SAR analysis of small molecule inhibitors of Apaf-1 in a Fluorescent assay.; format: functional; details: read-out: IC50_Mean
[18] = target: T5, Ubiquitin-conjugating enzyme E2 N (Homo sapiens, UniProt P61088); format: functional
T5 sequence (P61088 whole entry): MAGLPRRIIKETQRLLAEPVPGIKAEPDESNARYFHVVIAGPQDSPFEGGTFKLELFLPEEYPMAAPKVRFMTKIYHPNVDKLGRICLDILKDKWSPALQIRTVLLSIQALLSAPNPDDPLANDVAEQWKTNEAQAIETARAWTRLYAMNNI

[19] = target: T5, Ubiquitin-conjugating enzyme E2 N; format: functional; remark: listed apart in the source
[20] = target: Glycogen synthase kinase-3 beta (Homo sapiens, UniProt P49841); experiment: GSK3beta kinase inhibitors, dose response, biochemical, microfluidics, dry powder samples, set 2 (AID 623989); format: functional
Chain of Glycogen synthase kinase-3 beta (P49841 whole entry): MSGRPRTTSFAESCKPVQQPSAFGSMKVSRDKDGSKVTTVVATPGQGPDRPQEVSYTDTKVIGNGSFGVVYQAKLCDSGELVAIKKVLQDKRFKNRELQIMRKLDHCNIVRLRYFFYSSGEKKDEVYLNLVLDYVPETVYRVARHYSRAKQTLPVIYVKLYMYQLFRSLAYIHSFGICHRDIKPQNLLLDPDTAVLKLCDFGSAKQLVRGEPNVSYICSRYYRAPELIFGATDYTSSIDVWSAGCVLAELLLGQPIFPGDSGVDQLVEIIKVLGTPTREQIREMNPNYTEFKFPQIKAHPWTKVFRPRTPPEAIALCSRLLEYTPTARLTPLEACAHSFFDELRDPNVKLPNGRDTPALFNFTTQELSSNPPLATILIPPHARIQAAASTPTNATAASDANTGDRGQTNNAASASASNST

[21] = target: Glycogen synthase kinase-3 alpha (Homo sapiens, UniProt P49840); experiment: human GSK3 alpha kinase inhibition, dose response, selectivity assay for GSK3beta inhibitor project, biochemical, microfluidics, dry powder samples, set 2 (AID 623978); format: functional
Chain of Glycogen synthase kinase-3 alpha (P49840 whole entry): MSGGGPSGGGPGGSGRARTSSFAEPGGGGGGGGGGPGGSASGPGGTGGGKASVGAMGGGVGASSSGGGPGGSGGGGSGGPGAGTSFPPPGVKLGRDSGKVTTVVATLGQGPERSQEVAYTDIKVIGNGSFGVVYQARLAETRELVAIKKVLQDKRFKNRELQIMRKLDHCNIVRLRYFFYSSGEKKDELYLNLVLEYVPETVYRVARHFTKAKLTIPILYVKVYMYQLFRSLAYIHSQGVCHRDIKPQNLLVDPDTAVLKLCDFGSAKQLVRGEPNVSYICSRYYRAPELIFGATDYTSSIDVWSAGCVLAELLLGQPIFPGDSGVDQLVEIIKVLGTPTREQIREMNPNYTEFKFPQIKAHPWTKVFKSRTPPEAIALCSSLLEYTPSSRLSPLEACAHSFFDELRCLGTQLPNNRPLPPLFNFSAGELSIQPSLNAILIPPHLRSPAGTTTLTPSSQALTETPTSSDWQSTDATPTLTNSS

Chain of High affinity nerve growth factor receptor (P04629 whole entry): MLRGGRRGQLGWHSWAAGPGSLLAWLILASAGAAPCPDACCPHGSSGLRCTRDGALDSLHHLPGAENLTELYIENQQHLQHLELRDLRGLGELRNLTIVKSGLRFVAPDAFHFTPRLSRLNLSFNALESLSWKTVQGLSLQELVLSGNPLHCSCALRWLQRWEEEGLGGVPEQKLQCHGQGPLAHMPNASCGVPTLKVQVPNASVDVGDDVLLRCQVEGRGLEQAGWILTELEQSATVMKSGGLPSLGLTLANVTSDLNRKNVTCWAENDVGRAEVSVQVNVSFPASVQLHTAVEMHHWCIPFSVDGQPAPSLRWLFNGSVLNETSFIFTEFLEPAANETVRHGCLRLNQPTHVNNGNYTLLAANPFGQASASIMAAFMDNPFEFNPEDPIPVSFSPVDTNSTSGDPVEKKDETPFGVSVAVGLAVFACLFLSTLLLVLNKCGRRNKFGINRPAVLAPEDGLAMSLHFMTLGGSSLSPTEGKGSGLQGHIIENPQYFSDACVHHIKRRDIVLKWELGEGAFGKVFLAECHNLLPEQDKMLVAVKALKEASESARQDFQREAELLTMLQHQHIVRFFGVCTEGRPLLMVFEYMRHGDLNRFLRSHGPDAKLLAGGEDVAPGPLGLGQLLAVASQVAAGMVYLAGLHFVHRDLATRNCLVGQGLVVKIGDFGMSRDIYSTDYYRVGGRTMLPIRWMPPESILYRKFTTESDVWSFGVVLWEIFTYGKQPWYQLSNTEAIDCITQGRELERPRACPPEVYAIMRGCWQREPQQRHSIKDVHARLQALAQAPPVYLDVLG
Chain of Cyclin-dependent kinase 19 (Q9BWU1 whole entry): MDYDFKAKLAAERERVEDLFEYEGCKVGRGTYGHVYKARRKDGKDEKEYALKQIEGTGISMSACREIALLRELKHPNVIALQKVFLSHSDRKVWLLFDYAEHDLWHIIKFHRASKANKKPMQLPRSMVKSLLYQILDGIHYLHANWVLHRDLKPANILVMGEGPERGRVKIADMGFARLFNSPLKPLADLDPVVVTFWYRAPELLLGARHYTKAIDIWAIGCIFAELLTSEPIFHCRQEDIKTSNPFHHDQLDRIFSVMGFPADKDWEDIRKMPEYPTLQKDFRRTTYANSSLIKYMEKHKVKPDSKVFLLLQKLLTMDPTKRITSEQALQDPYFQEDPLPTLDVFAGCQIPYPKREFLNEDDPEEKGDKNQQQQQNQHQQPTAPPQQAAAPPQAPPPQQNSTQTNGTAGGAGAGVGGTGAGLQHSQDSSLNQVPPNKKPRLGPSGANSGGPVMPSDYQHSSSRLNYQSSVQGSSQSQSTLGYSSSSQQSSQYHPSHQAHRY

In the case of `O=C(Nc1cccc(C(F)(F)F)c1)Nc1cc(Cl)ccc1O`, the Ki [1] is reported as 20 µM (active) and the Ki [2] is reported as 10 µM (active).

With `N#CC(c1ccc(F)cc1Cl)c1c(Cl)cnn(Cc2cccc3ccccc23)c1=O` (stereo unspecified) the IC50 [3] was 1.71 µM (active) and the IC50 [4] was 1.71 µM (active).

For `O=C(O)C1CC(c2ccccc2Cl)=NO1` (stereo unspecified), the EC50 [5] was > 100 µM (inactive) and the EC50 [6] was > 100 µM (inactive).

For `Cc1ccc(NC(=O)CSc2nc3ccccc3c(=O)[nH]2)cc1Cl`, the CC50 [7] was > 100 µM (active) and the CC50 [8] was > 100 µM (active).

For `COc1ccc(Oc2c(Cl)c(C(=O)O)nn(-c3ccc(C(C)C)cc3)c2=O)cc1`, the IC50 [9] was > 20 µM (inactive) and the IC50 [10] was > 20 µM (inactive).

With `CCN(CC)CCOC(=O)c1ccc(N/C=C(/C#N)c2nc(-c3cc4ccccc4oc3=O)cs2)cc1` the IC50 [11] was > 59.6 µM (inactive), the IC50 [12] was > 20 µM (inactive) and the IC50 [13] was > 59.6 µM (inactive). For the same molecule, the IC50 [14] was 4.12 µM (active), the IC50 [15] was > 59.6 µM (inactive) and the IC50 [16] was 0.55 µM (active). The IC50 [17] was 3.09 µM (active), the IC50 [18] was 3.74 µM (active) and the IC50 [19] was 3.5 µM (active).

With `CCOc1ccccc1/C=N/NC(=O)c1nnn(-c2nonc2N)c1CN1CCCCCC1` the AC50 [20] was < 0.016 µM (active) and the AC50 [21] was 0.0219 µM (active).
